Values after ≈ are worked out from the molar mass of the structure shown. Where two headings read alike, the source gives them in different places.
Legend:
T. b. brucei = system: T. b. brucei; design: method as in PMID 20439607; conditions: read-out: IC50 versus T. b. brucei; cited from earlier work
[1] = design: method as in PMID 25141257; conditions: cited from earlier work
[2] = late stage HAT patients; cited from earlier work
[3] = Mouse pharmacokinetics (plasma, whole blood, brain); format: in vivo, male CD-1 mice; conditions: for bioavailability: from dose normalised AUClast values, read-out: F (oral bioavailability); for Vd: read-out: Vdss
Protocol: In order to determine the suitability of the more permeable hits for in vivo efficacy studies, we first measured their aqueous solubilities, and their tendencies to metabolise, following a 1 h incubation with CD-1 mouse liver S9 subcellular fractions.[14] […] This led us to probe their in vivo pharmacokinetic (PK) profiles in mice, examining concentration levels in plasma, whole blood and brain tissue following both intravenous and oral administration (Table 2; for further experimental details, see the Supporting Information). […]
Mouse Pharmacokinetics. The in-life portion of PK testing was carried out by ViviSource Laboratories, Inc., Mass achusetts, USA, and PK samples were anal ysed by Sc ynexis, Inc.
Test compounds (9, 12, 17, and 19) w er e each administered as single doses to groups of 10 male CD-1 mice by bolus intravenous injection or oral gavage. Intravenous dosing (at a nominal dose of 2 mg/kg) emplo yed a solution vehicle comprising either 20% EtOH, 20% propylene gl ycol, and 30% PEG -400 in normal saline (for powders 9, 17, and 19) or 0.5% (hydrox yprop yl)meth ylcellulose, 0.4% Tween 80, 0.5% benz yl alcohol, and 20% DMSO i n deionised water (for oil 12). […]
in 0.5% methylcellulose, 0.08% Tween 80 in water ( ex cept fo r oil 12, where the formulation additionally contained 20% DMSO). […]

in vitro = conditions: dog, MDCK-MDR1, Permeability Papp
T. b. brucei 427 = T. b. brucei 427 growth inhibition (Scynexis); format: cell-based, Trypanosoma brucei brucei
Mouse liver S9 stability = format: in vitro ADME; conditions: CD-1, mouse, mouse liver S9 subcellular fraction, half-life in mouse liver S9 fraction; read-out: Mouse S9 t1/2
[4] = Kinetic aqueous solubility in pH 7.4 PBS; format: physicochemical
From the text: Table 1 Inhibitory potency, metabolic stability, aqueous solubility, and MDCK-MDR1 cell permeability for 15 screening hits against T. b. brucei. | column: Solubility ^c / (µg/mL)

L929 mouse fibroblasts = experiment: Cytotoxicity toward L929 mouse fibroblasts (Scynexis); format: cell-based
[5] = male, CD-1, mouse, brain, intravenous, corrected doses 0.5, 1.1, 2.9, 2.0 mg/kg for 9, 12, 17, 19
[6] = male, CD-1, mouse, brain, oral, corrected doses 62, 50, 78, 49 mg/kg for 9, 12, 17, 19
[7] = male, CD-1, mouse, plasma, intravenous, corrected doses 0.5, 1.1, 2.9, 2.0 mg/kg for 9, 12, 17, 19
[8] = male, CD-1, mouse, plasma, oral, corrected doses 62, 50, 78, 49 mg/kg for 9, 12, 17, 19
[9] = male, CD-1, mouse, whole blood, intravenous, corrected doses 0.5, 1.1, 2.9, 2.0 mg/kg for 9, 12, 17, 19
[10] = male, CD-1, mouse, whole blood, oral, corrected doses 62, 50, 78, 49 mg/kg for 9, 12, 17, 19

O=[N+]([O-])c1cn2c(n1)OC[C@@H](OCc1ccc(OC(F)(F)F)cc1)C2 [Compound 6, pretomanid]
IC50 (T. b. brucei): 38 µM | oral half-life in mouse lung tissue [1]: 4.8 h

Nc1nc(N)nc(Nc2ccc([As]3SCC(CO)S3)cc2)n1 (stereo not shown) [melarsoprol]
death of patients caused by treatment [2]: ~5%

O=[N+]([O-])c1cn2c(n1)OC[C@@H](NCc1ccc(OC(F)(F)F)cc1)C2 [Compound 17]
time beyond which exposure above the MIC is inadequate ([3]; male, CD-1, mouse, in vivo, po): ~2 h | half-life ([3]; male, CD-1, mouse, po, 78 mg/kg, over plasma, whole blood, brain, read-out: oral half-life): 1.2 to 1.5 h | bioavailability ([3]; male, CD-1, mouse, po, brain): 100% | bioavailability ([3]; male, CD-1, mouse, po, plasma): 100% | bioavailability ([3]; male, CD-1, mouse, po, whole blood): 100% | AUC(0-t) [3, 5]: 962 ng·h/mL | clearance [3, 5]: 48.3 mL/min/kg | Vd [3, 5]: 2.3 L/kg | half-life ([3]; male, CD-1, mouse, brain, intravenous, corrected doses 0.5, 1.1, 2.9, 2.0 mg/kg for 9, 12, 17, 19, read-out: t1/2 (converted)): 0.26 h | AUC(0-t) [3, 6]: 50900 ng·h/mL | Cmax [3, 6]: 35000 ng/mL | Tmax [3, 6]: 0.5 h | half-life ([3]; male, CD-1, mouse, brain, oral, corrected doses 62, 50, 78, 49 mg/kg for 9, 12, 17, 19, read-out: t1/2 (converted)): 1.3 h | AUC(0-t) [3, 7]: 418 ng·h/mL | clearance [3, 7]: 113 mL/min/kg | Vd [3, 7]: 4.7 L/kg | half-life ([3]; male, CD-1, mouse, plasma, intravenous, corrected doses 0.5, 1.1, 2.9, 2.0 mg/kg for 9, 12, 17, 19, read-out: t1/2 (converted)): 0.48 h | AUC(0-t) [3, 8]: 20500 ng·h/mL | Cmax [3, 8]: 12000 ng/mL | Tmax [3, 8]: 1 h | half-life ([3]; male, CD-1, mouse, plasma, oral, corrected doses 62, 50, 78, 49 mg/kg for 9, 12, 17, 19, read-out: t1/2 (converted)): 1.2 h | AUC(0-t) [3, 9]: 1100 ng·h/mL | clearance [3, 9]: 40 mL/min/kg | Vd [3, 9]: 8.1 L/kg | half-life ([3]; male, CD-1, mouse, whole blood, intravenous, corrected doses 0.5, 1.1, 2.9, 2.0 mg/kg for 9, 12, 17, 19, read-out: t1/2 (converted)): 9.3 h | AUC(0-t) [3, 10]: 42200 ng·h/mL | Cmax [3, 10]: 26000 ng/mL | Tmax [3, 10]: 0.5 h | half-life ([3]; male, CD-1, mouse, whole blood, oral, corrected doses 62, 50, 78, 49 mg/kg for 9, 12, 17, 19, read-out: t1/2 (converted)): 1.5 h | concentration levels in brain tissue relative to plasma (fold higher) ([3]; mouse, in vivo): 2- to 3 fold | Papp at 1 h, 3 µM (in vitro): 80.4 ×10⁻⁶ cm/s | Selectivity Index (T. b. brucei 427; L929 vs T. b. brucei): >13 | IC50 (T. b. brucei 427; Trypanosoma brucei, growth inhibition of T. b. brucei 427, mean ± SD): 0.78 ± 0.01 µg/mL (≈ 2.18 µM) | half-life (Mouse liver S9 stability): > 5.83 h | solubility [4]: > 72 µg/mL | IC50 (L929 mouse fibroblasts): > 10 µg/mL | oral half-life in mouse lung tissue [1]: 1.3 h

From paper PMC5840523, “Assessment of a pretomanid analogue library for African trypanosomiasis: Hit-to-lead studies on 6-substituted 2-nitro-6,7-dihydro-5H-imidazo[2,1-b][1,3]thiazine 8-oxides” (Bioorganic & Medicinal Chemistry Letters, 2018)
